Data from patent publication US20230248029A1, “Single-Serving Beverage Ingredient Containers Comprising Nanoparticulate Cannabidiol” (priority 2022, published 2023).

Columns and labels:
[1] = CBD extraction in brewed coffee beverage, pure CBD powder (HPLC); format: physicochemical
Description: To test the extraction efficiency of pure CBD powder in a coffee brewing process, the foil lids of each of several single-serving coffee containers adapted for use in a Keurig single-serving coffee machine were peeled back, a small depression was made in the top of the coffee grounds, and a measured quantity of CBD powder was placed in the depression. The foil lids were then resealed, and the containers were shaken for 30 seconds to disperse the CBD powder throughout the mass of coffee grounds. Each of the containers was then used in a Keurig single-serving coffee machine to brew either a 160 mL coffee beverage or a 300 mL coffee beverage. Mixing the CBD powder throughout the coffee grounds allowed the CBD to melt as hot water flowed downward from the top of the container and through the mass of coffee grounds during the coffee brewing process; relative to simply disposing the CBD powder in the bottom of the container, this reduces the amount of CBD extracted into the coffee beverage but improves the extent to which the CBD is mixed and dispersed with other chemical components extracted with the coffee, thereby inhibiting the formation of a CBD film in the brewed coffee beverage.
For each brewed coffee beverage, the beverage was poured into three separate bottles; a small sample was taken from each bottle and diluted in 10× (by volume) ethanol. This mixture was then shaken and centrifuged to remove coffee components and dissolve the CBD. The supernatant was removed from the centrifuged samples and measured by high-performance liquid chromatography using an Agilent Zorbax Eclipse XDB-C8 column. The mobile phase was a 1 mL/min gradient of 70:30 (vol/vol) acetonitrile:water to 80:20 (vol/vol) acetonitrile:water over 8 minutes. A 20 μL injection was used and the column was kept at 25° C. Absorbance was measured at 210 nm with a 5 nm bandwidth.

[2] = CBD film formation on the surface of the brewed coffee beverage (visual); format: physicochemical; conditions: Keurig-brewed coffee beverage, visual (FIG. 5A, 5B)
Description: This variability is expected due to the difference in particle size between the CBD powder and the ground coffee, which makes uniform dispersion of the CBD powder throughout the coffee grounds difficult.
Without wishing to be bound by any particular theory, the present inventors hypothesize that more concentrated droplets may be effective to increase the CBD extraction from F68 formulations.
This is because, in the use of Keurig single-serving coffee machines (and in conventional drip coffee makers), the water used is at or near its boiling point, which in any event is much higher than the melting point of CBD (66° C.), and the colloid droplets therefore cannot resist these high temperatures, causing coalescence of the CBD. In some embodiments, therefore, it may be desirable to brew the coffee beverage at a lower temperature, or to brew a conventional (non-CBD-containing) coffee beverage at typical near-boiling temperatures and then mix in a CBD colloid as described herein after the coffee beverage has cooled to below the melting point of CBD (but still at or above the temperature at which the consumer desires to consume the coffee, which on average is about 60° C.); it is to be expressly understood that such embodiments are within the scope of the present disclosure.

[3] = oral; cited from earlier work
[4] = CBD mass 50 mg, beverage volume 160 mL
[5] = CBD mass 50 mg, beverage volume 300 mL
[6] = CBD mass 75 mg, beverage volume 160 mL
[7] = CBD mass 75 mg, beverage volume 300 mL
[8] = CBD mass 100 mg, beverage volume 160 mL
[9] = CBD mass 100 mg, beverage volume 300 mL

C=C(C)[C@@H]1CCC(C)=C[C@H]1c1c(O)cc(CCCCC)cc1O [CBD, cannabidiol]
CBD extraction [1, 4]: 22.0 ± 9.6% | CBD in beverage [1, 4]: 8.9 ± 4.4 mg | CBD extraction [1, 5]: 42.1 ± 10.0% | CBD in beverage [1, 5]: 20.3 ± 5.9 mg | CBD extraction [1, 6]: 8.3 ± 6.2% | CBD in beverage [1, 6]: 11.3 ± 4.8 mg | CBD extraction [1, 7]: 15.8 ± 5.2% | CBD in beverage [1, 7]: 11.9 ± 3.9 mg | CBD extraction [1, 8]: 21.0 ± 14.8% | CBD in beverage [1, 8]: 21.0 ± 14.8 mg | CBD extraction [1, 9]: 11.9 ± 3.5% | CBD in beverage [1, 9]: 11.9 ± 3.5 mg | CBD film formation in the brewed coffee beverage [2]: large, thick films | Maximum theoretical bioavailability of orally administered CBD [3]: 19%
